“And” between values parts separate entries of the source, which are not always exact repeats. Identical values can stand only once.
How the values were obtained:
Assay type in all cases: cell-based
A549 cells (control) = test: Cell viability assay (CellTiter-Glo), normal A549 (control); settings: control A549; for inhibition rate: replicate wells; for luminescence reading, everage: mean of 6 wells
Description: The cell lines Jurkat (TIB-152), El4 (TIB-39), Daudi (ccl-213), RS4:11 (crl-1873), A549 (ccl-185), HepG2 (hb-8065) and PANC-1 (crl-1469) were purchased from ATCC (American Type Culture Collection), and MGC-803 (C6582) was purchased from Beyotime (https://www.beyotime.com/product/C6582.htm). […] Daudi and RS4:11 cells were cultured in RPMI-1640 medium (HyClone, SH30809.01) and 10% FBS (Gibco, 10099-141), whereas HepG2, MGC-803 and PANC-1 cells were cultured in MDEM (HyClone, SH30243.01). Cells were maintained at 37 °C under a humidified, 5% (v/v) CO2-containing atmosphere.
(§1) Cell viability was measured using CellTiter-Glo® 2.0 Reagent (Promega, G9242). […] After different inhibitors were added into serum-free medium and cultured for 4 h (RS4:11 for 6 h), FBS were supplemented to 10% and then incubated totally for 24 h or 48 h. Finally, the IC50 values were calculated based on measurements using a microplate reader (Thermo, Varioskan LUX). Statistical analysis was performed using software GraphPad Prism 7.0.

RS4:11 cells = test: Cell viability assay (CellTiter-Glo), RS4:11; settings: for raw luminescence reading / inhibition rate: RS4:11; for raw luminescence reading: listed as ABT199
Method in brief: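 Compounds added in serum-free medium for 4 h (RS4:11: 6 h), then FBS brought to 10% and incubation continued to 24 h or 48 h total at 37 °C, 5% CO2. Viability by CellTiter-Glo 2.0 luminescence; IC50 calculated.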

[1] = tested on: A549 cells overexpressing BCL-2 G101V; test: Cell viability assay, A549 stably overexpressing BCL-2 G101V; settings: for luminescence reading (raw, replicate wells) / luminescence reading, everage / inhibition rate: BCL2/G101V A549; for luminescence reading, everage: mean of 6 wells
Description: as §1
Lentivirus packaging vectors pMDLg/pRRE, pRSV-Rev, and pVSV-G were obtained from Prof. Han Jiahuai’s lab (Xiamen University). Lentiviruses were produced using 3rd-generation lentivirus packaging plasmids transiently transfected into HEK293T cells with the constructs of interest using 0.25 M CaCl2. Media was changed after 16 h, and supernatants containing infectious virus particles were harvested 24 h later. A second viral harvest was made following a further 24 h incubation with fresh media. Virus containing supernatant was filtered through a […], and stored at 4 °C or −80 °C until being used. Typically, A549 cells were seeded into 10 cm cell culture dishes at 4 ~ 8 × 10^5 cells/cm^2. An equivalent volume of virus containing culture medium was added along with polybrene (Sigma) to a final concentration of 10 µg/mL. Cells were incubated at 37 °C for 20 h, before they were washed and resuspended in fresh culture media. The expression level of BCL-2 was measured by qPCR and western blot methods.

## CC1(C)CCC(CN2CCN(c3ccc(C(=O)NS(=O)(=O)c4ccc(NCC5CCOCC5)c([N+](=O)[O-])c4)c(Oc4cnc5[nH]ccc5c4)c3)CC2)=C(c2ccc(Cl)cc2)C1 [venetoclax]
A549 cells (control); ABT-199 6.25 uM
  inhibition rate: 78% and 77%
A549 cells (control); ABT-199 12.5 uM
  luminescence reading (raw, replicate wells): 154400 and 153500 and 158000 and 148200 and 149400 and 149600
  luminescence reading, everage: 152183
  inhibition rate: 80%
A549 cells (control); ABT-199 25 uM
  luminescence reading (raw, replicate wells): 102900 and 103500 and 106000 and 102100 and 105400 and 102800
  luminescence reading, everage: 103783
A549 cells (control); ABT-199 50 uM
  luminescence reading (raw, replicate wells): 55930 and 54730 and 51960 and 49990 and 56070 and 56150
  luminescence reading, everage: 54138
  inhibition rate: 94%
A549 cells (control); ABT-199 100 uM
  luminescence reading (raw, replicate wells): 16550 and 16810 and 16440 and 16110 and 17860 and 16240
  luminescence reading, everage: 16668
A549 cells (control); ABT-199 200 uM
  luminescence reading (raw, replicate wells): 6435 and 6601 and 7137 and 6682 and 6762 and 7490
  luminescence reading, everage: 6851
RS4:11 cells; Homo sapiens, RS4-11, RS4:11, 0.390625 nM, single wells, read-out: inhibition rate
  inhibition at 0.000390625 µM: 27%
RS4:11 cells; Homo sapiens, RS4-11, RS4:11, 0.78125 nM, single wells, read-out: inhibition rate
  inhibition at 0.00078125 µM: 67%
RS4:11 cells; Homo sapiens, RS4-11, RS4:11, 1.5625 nM, single wells, read-out: inhibition rate
  inhibition at 0.0015625 µM: 95%
RS4:11 cells; Homo sapiens, RS4-11, RS4:11, 3.125 nM, single wells, read-out: inhibition rate
  inhibition at 0.003125 µM: 98%
RS4:11 cells; Homo sapiens, RS4-11, RS4:11, 6.25 nM, single wells, read-out: inhibition rate
  inhibition at 0.00625 µM: 100%
RS4:11 cells; Homo sapiens, RS4-11, RS4:11, 12.5 nM, single wells, read-out: inhibition rate
  inhibition at 0.0125 µM: 100%
RS4:11 cells; Homo sapiens, RS4-11, RS4:11, 25 nM, single wells, read-out: inhibition rate
  inhibition at 0.025 µM: 100%
RS4:11 cells; Homo sapiens, RS4-11, RS4:11, 50 nM, single wells, read-out: inhibition rate
  inhibition at 0.05 µM: 100%
RS4:11 cells; Homo sapiens, RS4-11, RS4:11, 100 nM, single wells, read-out: inhibition rate
  inhibition at 0.1 µM: 100%
RS4:11 cells; Homo sapiens, RS4-11, RS4:11, 200 nM, single wells, read-out: inhibition rate
  inhibition at 0.2 µM: 100%
RS4:11 cells; Homo sapiens, RS4-11, 48 h treatment, CellTiter-Glo, small-molecule inhibitors, cells marked (nM)
  IC50: 0.5 ± 0.1 nM
RS4:11 cells; 0.012207 nM, single wells
  raw luminescence reading: 473100 and 440900 and 421900 and 464800 and 440500 and 404600
RS4:11 cells; 0.0244141 nM, single wells
  raw luminescence reading: 468000 and 467900 and 427500 and 463600 and 451400 and 411500
RS4:11 cells; 0.0488281 nM, single wells
  raw luminescence reading: 464300 and 463300 and 420200 and 448100 and 441000 and 405800
RS4:11 cells; 0.0976562 nM, single wells
  raw luminescence reading: 446400 and 453400 and 406000 and 426100 and 420400 and 382600
RS4:11 cells; 0.195312 nM, single wells
  raw luminescence reading: 418900 and 420900 and 384800 and 390800 and 394900 and 350200
RS4:11 cells; 0.390625 nM, single wells
  raw luminescence reading: 317400 and 330800 and 297800 and 297300 and 296900 and 256100
RS4:11 cells; 0.390625 nM, single wells, listed as ABT199, 0.000390625 µM
  inhibition rate: 24% and 32% and 41%
RS4:11 cells; 0.78125 nM, single wells
  raw luminescence reading: 141300 and 149000 and 125700 and 134100 and 136000 and 117900
RS4:11 cells; 0.78125 nM, single wells, listed as ABT199, 0.00078125 µM
  inhibition rate: 66% and 71% and 69% and 73%
RS4:11 cells; 1.5625 nM, single wells
  raw luminescence reading: 23070 and 25650 and 25890 and 29130 and 27640 and 29210
RS4:11 cells; 1.5625 nM, single wells, listed as ABT199, 0.0015625 µM
  inhibition rate: 94% and 93%
RS4:11 cells; 3.125 nM, single wells
  raw luminescence reading: 9731 and 10360 and 11130 and 12480 and 11890 and 12850
RS4:11 cells; 3.125 nM, single wells, listed as ABT199, 0.003125 µM
  inhibition rate: 97%
RS4:11 cells; 6.25 nM, single wells
  raw luminescence reading: 514.1 and 705.1 and 803.0 and 736.8 and 691.7 and 772.7
RS4:11 cells; 12.5 nM, single wells
  raw luminescence reading: 355.5 and 246.5 and 256.3 and 381.9 and 264.2 and 272.2
RS4:11 cells; 25 nM, single wells
  raw luminescence reading: 183.0 and 151.3 and 145.9 and 222.1 and 185.6 and 197.7
RS4:11 cells; 50 nM, single wells
  raw luminescence reading: 222.3 and 165.6 and 152.2 and 216.6 and 173.6 and 195.6
[1]; ABT-199 0.390625 uM
  luminescence reading (raw, replicate wells): 626600 and 647800 and 649100 and 614500 and 623500 and 619300
  luminescence reading, everage: 630133
[1]; ABT-199 0.390625 uM, replicate wells
  inhibition rate: -3% and -6.36% and -6.57% and -0.889% and -2.37% and -1.68%
[1]; ABT-199 0.78125 uM
  luminescence reading (raw, replicate wells): 583300 and 568200 and 597700 and 560800 and 571600 and 528100
  luminescence reading, everage: 568283
[1]; ABT-199 0.78125 uM, replicate wells
  inhibition rate: 4.23% and 7% and 1.87% and 8% and 6% and 13%
[1]; ABT-199 1.5625 uM
  luminescence reading (raw, replicate wells): 398200 and 407800 and 413600 and 450500 and 408700 and 467800
  luminescence reading, everage: 424433
[1]; ABT-199 1.5625 uM, replicate wells
  inhibition rate: 33% and 32% and 26% and 23%
[1]; ABT-199 3.125 uM
  luminescence reading (raw, replicate wells): 271900 and 280300 and 266200 and 296500 and 277300 and 344500
  luminescence reading, everage: 289450
[1]; ABT-199 3.125 uM, replicate wells
  inhibition rate: 54% and 56% and 51% and 43%
[1]; ABT-199 6.25 uM
  luminescence reading (raw, replicate wells): 262900 and 273800 and 273900 and 296400 and 264200 and 315700
  luminescence reading, everage: 281150
[1]; ABT-199 6.25 uM, replicate wells
  inhibition rate: 51% and 48%
[1]; ABT-199 12.5 uM
  luminescence reading (raw, replicate wells): 184500 and 179700 and 182600 and 196200 and 190700 and 205800
  luminescence reading, everage: 189917
[1]; ABT-199 12.5 uM, replicate wells
  inhibition rate: 68% and 69% and 66%
[1]; ABT-199 25 uM
  luminescence reading (raw, replicate wells): 98970 and 101200 and 102400 and 107200 and 99210 and 118800
  luminescence reading, everage: 104630
[1]; ABT-199 25 uM, replicate wells
  inhibition rate: 83% and 82% and 80%
[1]; ABT-199 50 uM
  luminescence reading (raw, replicate wells): 50230 and 51420 and 49850 and 51590 and 53640 and 55790
  luminescence reading, everage: 52087
[1]; ABT-199 50 uM, replicate wells
  inhibition rate: 91%
[1]; ABT-199 100 uM
  luminescence reading (raw, replicate wells): 16880 and 17260 and 16270 and 16910 and 17660 and 17950
  luminescence reading, everage: 17155
[1]; ABT-199 200 uM
  luminescence reading (raw, replicate wells): 5500 and 6087 and 6493 and 5130 and 5793 and 6329
  luminescence reading, everage: 5889
[1]; Homo sapiens, A549, BCL2/G101V A549, ABT-199 1.5625 uM, replicate wells, read-out: inhibition rate
  inhibition at 1.5625 µM: 35%
[1]; Homo sapiens, A549, BCL2/G101V A549, ABT-199 3.125 uM, replicate wells, read-out: inhibition rate
  inhibition at 3.125 µM: 55%
[1]; Homo sapiens, A549, BCL2/G101V A549, ABT-199 6.25 uM, replicate wells, read-out: inhibition rate
  inhibition at 6.25 µM: 57%
[1]; Homo sapiens, A549, BCL2/G101V A549, ABT-199 12.5 uM, replicate wells, read-out: inhibition rate
  inhibition at 12.5 µM: 70%
[1]; Homo sapiens, A549, BCL2/G101V A549, ABT-199 25 uM, replicate wells, read-out: inhibition rate
  inhibition at 25 µM: 84%
[1]; Homo sapiens, A549, BCL2/G101V A549, ABT-199 50 uM, replicate wells, read-out: inhibition rate
  inhibition at 50 µM: 92%
[1]; Homo sapiens, A549, BCL2/G101V A549, ABT-199 100 uM, replicate wells, read-out: inhibition rate
  inhibition at 100 µM: 97%
[1]; Homo sapiens, A549, BCL2/G101V A549, ABT-199 200 uM, replicate wells, read-out: inhibition rate
  inhibition at 200 µM: 99%
[1]; Homo sapiens, A549, 48 h, CellTiter-Glo, n = 6
  IC50: 4.1 ± 0.3 µM

Source: PMC10874388, “Cyclic peptides discriminate BCL-2 and its clinical mutants from BCL-XL by engaging a single-residue discrepancy” (Nature Communications, 2024)
